Measured values as given in US9908897B2, “Spirocyclic derivatives” (CHRONOS THERAPEUTICS LIMITED, priority 2014, dated 2018).

What was measured:
[1] = molecular target: human dopamine transporter (DAT) (Homo sapiens (Human), UniProt Q01959); test: Scintillation Proximity Assay (SPA) competition binding, human DAT; settings: recombinant hDAT-CHO membranes, [3H]WIN-35,428
Outline: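 SPA binding on membranes from CHO cells stably expressing human DAT, with 5 nM [3H]WIN-35,428, WGA-PVT beads and 0.02% BSA in HEPES/NaCl/KCl buffer pH 7.4.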

[2] = molecular target: human norepinephrine transporter (NET) (Homo sapiens (Human), UniProt P23975); test: Scintillation Proximity Assay (SPA) competition binding, human NET; settings: recombinant hNET-CHO membranes, [3H]nisoxetine
Sequence of human norepinephrine transporter (NET) (P23975 whole entry): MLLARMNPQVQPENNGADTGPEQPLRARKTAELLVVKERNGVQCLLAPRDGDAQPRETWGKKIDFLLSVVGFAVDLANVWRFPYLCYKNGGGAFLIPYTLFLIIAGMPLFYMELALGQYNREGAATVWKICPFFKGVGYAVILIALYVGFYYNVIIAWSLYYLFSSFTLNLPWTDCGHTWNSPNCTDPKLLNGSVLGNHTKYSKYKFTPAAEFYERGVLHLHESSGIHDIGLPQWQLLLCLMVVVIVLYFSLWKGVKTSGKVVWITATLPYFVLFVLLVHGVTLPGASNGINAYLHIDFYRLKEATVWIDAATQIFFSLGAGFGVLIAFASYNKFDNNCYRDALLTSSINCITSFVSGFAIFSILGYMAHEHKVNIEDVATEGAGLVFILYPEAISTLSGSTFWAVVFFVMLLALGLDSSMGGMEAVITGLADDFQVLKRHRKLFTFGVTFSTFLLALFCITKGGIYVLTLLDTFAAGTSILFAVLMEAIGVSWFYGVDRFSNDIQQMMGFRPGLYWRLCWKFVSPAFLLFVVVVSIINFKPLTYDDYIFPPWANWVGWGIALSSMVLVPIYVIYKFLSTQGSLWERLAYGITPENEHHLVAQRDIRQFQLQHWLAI

[3] = molecular target: human serotonin transporter (SERT) (Homo sapiens (Human), UniProt P31645); test: Scintillation Proximity Assay (SPA) competition binding, human SERT; settings: recombinant hSERT-CHO membranes, [3H]citalopram
Sequence of human serotonin transporter (SERT) (P31645 whole entry): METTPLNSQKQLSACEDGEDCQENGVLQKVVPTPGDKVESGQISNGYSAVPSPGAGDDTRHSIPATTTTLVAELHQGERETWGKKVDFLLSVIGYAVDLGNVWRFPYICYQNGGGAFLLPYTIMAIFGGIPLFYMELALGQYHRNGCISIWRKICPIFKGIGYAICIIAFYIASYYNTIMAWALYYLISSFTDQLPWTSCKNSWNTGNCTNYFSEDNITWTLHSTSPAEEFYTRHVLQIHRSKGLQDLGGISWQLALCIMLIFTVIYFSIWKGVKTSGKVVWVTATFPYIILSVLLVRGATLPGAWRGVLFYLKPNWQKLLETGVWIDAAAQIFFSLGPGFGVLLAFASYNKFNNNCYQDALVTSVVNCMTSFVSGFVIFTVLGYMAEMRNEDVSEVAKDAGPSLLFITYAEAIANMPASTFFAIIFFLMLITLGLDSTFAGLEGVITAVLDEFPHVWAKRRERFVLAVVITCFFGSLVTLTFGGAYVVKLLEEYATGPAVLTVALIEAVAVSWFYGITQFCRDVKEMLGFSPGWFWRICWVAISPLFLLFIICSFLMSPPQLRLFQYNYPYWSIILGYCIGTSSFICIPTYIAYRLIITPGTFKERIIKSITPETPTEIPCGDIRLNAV

[4] = molecular target: human ERG potassium channel (hERG) (Homo sapiens (Human), UniProt Q12809); test: hERG tail current recording, Rapid ICE automated patch-clamp; assay type: cell-based; settings: HEK293 cells stably transfected with hERG
Sequence of human ERG potassium channel (hERG) (Q12809 whole entry): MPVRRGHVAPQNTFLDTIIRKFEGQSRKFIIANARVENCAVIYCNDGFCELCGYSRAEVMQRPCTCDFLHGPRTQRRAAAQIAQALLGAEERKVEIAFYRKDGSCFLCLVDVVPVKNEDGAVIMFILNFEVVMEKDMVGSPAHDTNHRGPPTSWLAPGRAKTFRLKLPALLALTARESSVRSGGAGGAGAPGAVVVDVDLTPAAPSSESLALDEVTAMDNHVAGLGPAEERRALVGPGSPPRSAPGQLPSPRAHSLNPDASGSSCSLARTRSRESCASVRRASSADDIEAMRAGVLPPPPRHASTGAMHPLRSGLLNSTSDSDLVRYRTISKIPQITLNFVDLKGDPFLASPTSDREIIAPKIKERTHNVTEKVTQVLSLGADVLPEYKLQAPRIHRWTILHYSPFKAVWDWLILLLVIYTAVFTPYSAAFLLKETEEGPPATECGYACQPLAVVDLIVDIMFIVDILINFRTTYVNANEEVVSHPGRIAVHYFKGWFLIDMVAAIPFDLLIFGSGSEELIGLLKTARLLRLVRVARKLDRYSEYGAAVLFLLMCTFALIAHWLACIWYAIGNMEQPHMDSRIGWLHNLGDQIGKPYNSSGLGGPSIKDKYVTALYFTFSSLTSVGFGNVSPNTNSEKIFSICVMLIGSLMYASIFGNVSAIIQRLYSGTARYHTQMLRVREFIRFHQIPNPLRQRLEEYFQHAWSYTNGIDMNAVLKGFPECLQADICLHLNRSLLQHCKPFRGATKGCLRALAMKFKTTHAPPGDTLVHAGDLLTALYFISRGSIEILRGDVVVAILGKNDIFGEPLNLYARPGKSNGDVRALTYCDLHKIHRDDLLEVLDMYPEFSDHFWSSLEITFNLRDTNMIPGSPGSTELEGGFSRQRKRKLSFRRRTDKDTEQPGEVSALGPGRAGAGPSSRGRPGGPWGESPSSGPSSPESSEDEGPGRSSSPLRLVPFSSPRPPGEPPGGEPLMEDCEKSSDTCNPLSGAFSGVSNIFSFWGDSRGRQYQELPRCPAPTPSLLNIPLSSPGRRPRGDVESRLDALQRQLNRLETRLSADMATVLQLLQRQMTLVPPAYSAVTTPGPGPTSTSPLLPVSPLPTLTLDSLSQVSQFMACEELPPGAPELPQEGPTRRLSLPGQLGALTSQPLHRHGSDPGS
Description: Measure of the Effect on hERG Channel by Tail Current Recording Using In Vitro Rapid ICE™
The potency of the compounds of the invention in inhibiting human ERG potassium channel (hERG) tail current is assessed in a recombinant HEK293 cell line stably transfected with hERG cDNA using Rapid ICE™ (Rapid Ion Channel Electrophysiology) assay. Rapid ICE™ is an automated patch-clamp assay utilizing the PatchXpress 7000A system (Molecular Devices Corporation) or the QPatch HTX system (Sophion Bioscience A/S).
Briefly cells are cultivated for 24 to 72 hours before recordings in minimum essential medium supplemented with 10% FBS, 1% non-essential amino acids, 1% sodium pyruvate, 2 mM L-glutamine. The day of the experiment cells are detached with TrypLE and prepared to be loaded on the instrument. For PatchXpress cells are finally resuspended in 150 μl of Extracellular Buffer whereas for QPatch cells are resuspended in 7 ml Serum-Free Media containing 25 mM Hepes and Soybean trypsin inhibitor and immediately placed in the cell storage tank of the machine. The composition of the Extracellular Buffer is (mM): NaCl 137; KCl 4; CaCl2 1.8; MgCl2 1.0; D-glucose 10; N 2 hydroxyethylpiperazine-N′-2-ethanesulfonic acid (HEPES) 10; pH 7.4 with 1 M NaOH. The composition of the pipette solution is (mM): KCl 130; MgCl2 1.0; Ethylene glycol-bis(β-aminoethyl ether)-N,N,N′,N′-tetraacetic acid (EGTA) 5; MgATP 5; HEPES 10; pH 7.2 with 1 M KOH. The voltage protocol includes the following steps: step from −80 mV to −50 mV for 200 ms, +20 mV for 4.8 s, step to −50 mV for 5 s then step to the holding potential of −80 mV. Compounds of the invention are dissolved in DMSO and diluted in Extracellular Buffer to achieve final test concentrations (0.1, 1 and 10 μM) in 0.1% DMSO. The voltage protocol is run and recorded continuously during the experiment. The vehicle, corresponding to 0.1% DMSO in Extracellular Buffer, is then applied for 3 min followed by the test substance in triplicate. The standard combined exposure time is 5 min. The average of tail current amplitude values recorded from 4 sequential voltage pulses is used to calculate for each cell the effect of the test substance by calculating the residual current (% control) compared with vehicle pre-treatment. Data are reported as % inhibition for each concentration tested and IC50 values are estimated using DataXpress or QPatch software. At least two cells are tested, more if results diverge.

Sequence of human dopamine transporter (DAT) (Q01959 whole entry): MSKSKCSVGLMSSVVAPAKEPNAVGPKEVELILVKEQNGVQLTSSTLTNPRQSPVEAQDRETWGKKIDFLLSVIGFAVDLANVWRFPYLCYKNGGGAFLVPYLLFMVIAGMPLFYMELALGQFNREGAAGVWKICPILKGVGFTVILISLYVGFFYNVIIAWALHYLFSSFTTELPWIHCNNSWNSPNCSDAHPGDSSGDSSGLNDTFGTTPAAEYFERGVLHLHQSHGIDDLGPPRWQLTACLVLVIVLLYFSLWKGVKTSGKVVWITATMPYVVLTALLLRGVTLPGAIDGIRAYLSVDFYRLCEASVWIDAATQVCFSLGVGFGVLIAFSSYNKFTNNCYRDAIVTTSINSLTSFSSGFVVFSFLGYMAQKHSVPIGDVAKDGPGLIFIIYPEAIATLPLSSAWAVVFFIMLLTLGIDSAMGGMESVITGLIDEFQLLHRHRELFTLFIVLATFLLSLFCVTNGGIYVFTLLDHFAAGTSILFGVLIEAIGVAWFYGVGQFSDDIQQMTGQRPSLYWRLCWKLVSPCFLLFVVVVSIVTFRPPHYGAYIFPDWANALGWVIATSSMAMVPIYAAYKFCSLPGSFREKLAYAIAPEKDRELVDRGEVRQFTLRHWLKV

## Cl.Fc1cccc(Oc2cc(C(F)(F)F)nc(N3CCC4(CC3)CNCC(F)(F)O4)n2)c1 [Example 70, 2,2-difluoro-9-[4-(3-fluorophenoxy)-6-(trifluoromethyl)pyrimidin-2-yl]-1-oxa-4,9-diazaspiro[5.5]undecane hydrochloride]
[1]
  pIC50 DAT: 6.65
[2]
  pIC50 NET: 5.17
[3]
  IC50: > 100 µM
[4]
  pIC50 hERG: 5.0

## Fc1cccc(Oc2ccccc2N2CCC3(CC2)CNCCO3)c1 [Example 4, 9-[2-(3-fluorophenoxy)phenyl]-1-oxa-4,9-diazaspiro[5.5]undecane]
[1]
  pIC50 DAT: 7.31
[2]
  pIC50 NET: 6.13
[3]
  pIC50 SERT: 6.24
[4]
  pIC50 hERG: 5.8

## Fc1cccc(Oc2cc(N3CCC4(CC3)CNCCO4)ccc2F)c1 [Example 11, 9-[4-fluoro-3-(3-fluorophenoxy)phenyl]-1-oxa-4,9-diazaspiro[5.5]undecane]
[1]
  pIC50 DAT: 6.78
[2]
  pIC50 NET: 5.72
[3]
  pIC50 SERT: 6.22
[4]
  pIC50 hERG: 6.5

## Fc1cccc(Oc2cc(F)c(F)cc2N2CCC3(CCNC3)CC2)c1 [Example 91, 8-[4,5-difluoro-2-(3-fluorophenoxy)phenyl]-2,8-diazaspiro[4.5]decane]
[1]
  pIC50 DAT: 8.01
[2]
  pIC50 NET: 6.26
[3]
  pIC50 SERT: 7.29
[4]
  pIC50 hERG: 5.9

## Fc1cccc(Oc2cc(F)cc(N3CCC4(CC3)CNCCO4)c2)c1 [Example 8, 9-[3-fluoro-5-(3-fluorophenoxy)phenyl]-1-oxa-4,9-diazaspiro[5.5]undecane]
[1]
  pIC50 DAT: 8.25
[2]
  pIC50 NET: 6.90
[3]
  pIC50 SERT: 7.10
[4]
  pIC50 hERG: 6.3

## Cc1cccc(Oc2cc(C)nc(N3CCC4(CC3)CNCCO4)n2)c1.Cl [Example 45, 9-[4-methyl-6-(3-methylphenoxy)pyrimidin-2-yl]-1-oxa-4,9-diazaspiro[5.5]undecane hydrochloride]
[1]
  pIC50 DAT: 7.59
[2]
  pIC50 NET: 5.54
[3]
  pIC50 SERT: 4.83
[4]
  pIC50 hERG: 5.7

## O=C1COC2(CCN(c3nc(Oc4cccc(F)c4)cc(C(F)(F)F)n3)CC2)CN1 [Example 68, 9-[4-(3-fluorophenoxy)-6-(trifluoromethyl)pyrimidin-2-yl]-1-oxa-4,9-diazaspiro[5.5]undecan-3-one]
[1]
  pIC50 DAT: 7.28
[2]
  pIC50 NET: 5.39
[3]
  pIC50 SERT: 4.45
[4]
  IC50: > 10 µM

## Fc1cccc(Oc2cccc(N3CCC4(CC3)CNCCO4)c2F)c1 [Example 19, 9-[2-fluoro-3-(3-fluorophenoxy)phenyl]-1-oxa-4,9-diazaspiro[5.5]undecane]
[1]
  pIC50 DAT: 8.64
[2]
  pIC50 NET: 7.01
[3]
  pIC50 SERT: 5.99
[4]
  pIC50 hERG: 5.4

## Cc1cc(Oc2cccc(C(F)(F)F)c2)nc(N2CCC3(CC2)CNCCO3)n1.Cl [Example 48, 9-{4-methyl-6-[3-(trifluoromethyl)phenoxy]pyrimidin-2-yl}-1-oxa-4,9-diazaspiro[5.5]undecane hydrochloride]
[1]
  pIC50 DAT: 6.50
[2]
  pIC50 NET: 5.48
[3]
  pIC50 SERT: 5.58
[4]
  pIC50 hERG: 5.6

## Cl.N#Cc1cccc(Oc2cc(C(F)(F)F)nc(N3CCC4(CC3)CNCCO4)n2)c1 [Example 59, 3-[(2-{1-oxa-4,9-diazaspiro[5.5]undecan-9-yl}-6-(trifluoromethyl)pyrimidin-4-yl)oxy]benzonitrile hydrochloride]
[1]
  pIC50 DAT: 8.01
[2]
  pIC50 NET: 5.67
[3]
  pIC50 SERT: 5.15
[4]
  pIC50 hERG: 7.0

## N#Cc1ccc(Oc2ccccc2)c(N2CCC3(CC2)CNCCO3)c1 [Example 5, 3-{1-oxa-4,9-diazaspiro[5.5]undecan-9-yl}-4-phenoxybenzonitrile]
[1]
  pIC50 DAT: 6.82
[2]
  pIC50 NET: 6.19
[3]
  pIC50 SERT: 7.63
[4]
  pIC50 hERG: 6.2

## Cl.Fc1cccc(Oc2ccnc(N3CCC4(CC3)CNCCO4)n2)c1 [Example 42, 9-[4-(3-fluorophenoxy)pyrimidin-2-yl]-1-oxa-4,9-diazaspiro[5.5]undecane hydrochloride]
[1]
  pIC50 DAT: 7.33
[2]
  pIC50 NET: 5.64
[3]
  pIC50 SERT: 4.69
[4]
  pIC50 hERG: 6.4
